Here are results for 22 compounds from ChEMBL document CHEMBL1255172, “Discovery and structure-activity relationship of a novel spirocarbamate series of NPY Y5 antagonists” (Bioorg Med Chem Lett, 2010).

SMILES strings stand for the structures.

The nature of series [1]: Protein binding in rat brain assessed as unbound fraction. It is filed as ADME, tissue-based. The settings on record: brain tissue.
For another series, the target named is Cytochrome P450 3A4 (Homo sapiens, UniProt P08684). Kind of series: Inhibition of CYP3A4. Format: ADME.
Sequence of Cytochrome P450 3A4 (P08684 whole entry): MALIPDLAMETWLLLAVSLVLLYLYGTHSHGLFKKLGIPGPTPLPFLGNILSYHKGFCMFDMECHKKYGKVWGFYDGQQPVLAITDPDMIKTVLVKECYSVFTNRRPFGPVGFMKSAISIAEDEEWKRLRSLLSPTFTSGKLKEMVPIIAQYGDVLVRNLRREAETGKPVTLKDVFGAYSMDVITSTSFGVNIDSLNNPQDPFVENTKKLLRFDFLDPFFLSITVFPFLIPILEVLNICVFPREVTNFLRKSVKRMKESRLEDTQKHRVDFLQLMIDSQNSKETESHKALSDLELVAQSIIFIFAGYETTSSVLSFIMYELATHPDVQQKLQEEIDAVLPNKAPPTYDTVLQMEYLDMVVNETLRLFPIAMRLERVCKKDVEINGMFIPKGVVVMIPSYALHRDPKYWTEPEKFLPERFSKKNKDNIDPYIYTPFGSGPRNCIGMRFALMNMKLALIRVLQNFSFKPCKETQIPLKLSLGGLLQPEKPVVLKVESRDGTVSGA
The target in the next series is Cytochrome P450 2D6 (Homo sapiens, UniProt P10635). Nature of the series: Inhibition of CYP2D6. It is filed as ADME.
Sequence of Cytochrome P450 2D6 (P10635 whole entry): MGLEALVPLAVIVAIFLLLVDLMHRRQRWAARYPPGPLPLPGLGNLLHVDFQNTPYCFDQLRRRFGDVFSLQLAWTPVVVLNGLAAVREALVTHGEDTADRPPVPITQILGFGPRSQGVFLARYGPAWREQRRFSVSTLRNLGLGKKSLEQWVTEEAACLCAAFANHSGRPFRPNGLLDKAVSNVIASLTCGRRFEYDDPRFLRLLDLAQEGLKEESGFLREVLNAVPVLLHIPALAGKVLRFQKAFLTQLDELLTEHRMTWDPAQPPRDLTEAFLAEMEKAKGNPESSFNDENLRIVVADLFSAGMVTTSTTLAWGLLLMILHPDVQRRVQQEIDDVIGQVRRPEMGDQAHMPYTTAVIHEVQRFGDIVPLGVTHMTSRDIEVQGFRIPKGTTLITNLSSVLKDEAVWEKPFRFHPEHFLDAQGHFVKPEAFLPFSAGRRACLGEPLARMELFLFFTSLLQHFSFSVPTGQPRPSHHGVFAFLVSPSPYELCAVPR
In another series the target is Cytochrome P450 2C9 (Homo sapiens, UniProt P11712). Kind of series: Inhibition of CYP2C9. Format: ADME.
Sequence of Cytochrome P450 2C9 (P11712 whole entry): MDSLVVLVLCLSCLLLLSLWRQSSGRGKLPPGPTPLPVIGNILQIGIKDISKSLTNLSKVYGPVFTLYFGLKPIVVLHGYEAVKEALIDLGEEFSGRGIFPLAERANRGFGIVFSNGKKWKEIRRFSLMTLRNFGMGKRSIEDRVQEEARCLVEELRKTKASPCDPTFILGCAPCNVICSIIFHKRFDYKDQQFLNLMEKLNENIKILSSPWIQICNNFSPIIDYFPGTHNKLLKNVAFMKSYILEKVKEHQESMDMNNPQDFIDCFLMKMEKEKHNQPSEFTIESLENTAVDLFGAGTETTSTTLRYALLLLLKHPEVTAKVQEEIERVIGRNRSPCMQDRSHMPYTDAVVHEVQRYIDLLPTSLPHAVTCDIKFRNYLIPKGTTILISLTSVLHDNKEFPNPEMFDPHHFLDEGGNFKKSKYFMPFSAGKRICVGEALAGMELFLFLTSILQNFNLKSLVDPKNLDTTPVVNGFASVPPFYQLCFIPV
For a further series, the target named is T1, Cytochrome P450 1A2 (Homo sapiens, UniProt P05177).
T1 sequence (P05177 whole entry): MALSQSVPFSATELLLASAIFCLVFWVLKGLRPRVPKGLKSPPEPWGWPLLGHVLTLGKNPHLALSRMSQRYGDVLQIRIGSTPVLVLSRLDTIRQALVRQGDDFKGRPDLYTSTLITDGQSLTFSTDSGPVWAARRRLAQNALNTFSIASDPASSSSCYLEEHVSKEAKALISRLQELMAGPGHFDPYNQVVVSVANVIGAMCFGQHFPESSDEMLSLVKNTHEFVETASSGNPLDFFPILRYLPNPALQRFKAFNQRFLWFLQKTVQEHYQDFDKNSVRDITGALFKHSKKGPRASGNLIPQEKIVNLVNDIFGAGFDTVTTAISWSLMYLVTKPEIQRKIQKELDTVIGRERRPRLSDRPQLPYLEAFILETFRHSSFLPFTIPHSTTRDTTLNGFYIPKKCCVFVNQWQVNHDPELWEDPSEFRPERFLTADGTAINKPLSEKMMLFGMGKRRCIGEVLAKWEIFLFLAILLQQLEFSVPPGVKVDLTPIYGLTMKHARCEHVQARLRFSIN
Kind of series: Inhibition of CYP1A2. Format: ADME.

The next series concerns the target Cytochrome P450 2C19 (Homo sapiens, UniProt P33261). Nature of the series: Inhibition of CYP2C19. Format: ADME.
In series [2] the target is T2, Neuropeptide Y receptor type 5 (Homo sapiens, UniProt Q15761).
T2 sequence (Q15761 whole entry): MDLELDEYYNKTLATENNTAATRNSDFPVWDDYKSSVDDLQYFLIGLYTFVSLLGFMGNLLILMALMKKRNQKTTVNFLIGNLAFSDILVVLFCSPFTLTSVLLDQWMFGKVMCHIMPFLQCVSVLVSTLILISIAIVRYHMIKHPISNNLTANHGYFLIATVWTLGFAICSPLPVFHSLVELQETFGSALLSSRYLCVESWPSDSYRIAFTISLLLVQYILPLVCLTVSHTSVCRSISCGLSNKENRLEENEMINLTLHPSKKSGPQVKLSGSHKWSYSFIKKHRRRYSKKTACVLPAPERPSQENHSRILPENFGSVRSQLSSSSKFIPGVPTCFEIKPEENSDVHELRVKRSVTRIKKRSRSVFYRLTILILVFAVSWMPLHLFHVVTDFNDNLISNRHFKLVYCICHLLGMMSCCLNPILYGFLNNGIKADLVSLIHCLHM
Nature of the series: Antagonist activity at human NPY Y5 receptor. Format: functional.

A short description of series [3]: Clearance in rat blood at 0.5 mg/kg, iv and 1 mg/kg, po. The settings on record: whole blood. It is filed as ADME, organism-based.
In series [4] the test system is Liver microsomes. Kind of series: Intrinsic clearance in human liver microsome. It is filed as ADME.
The test system of series [5] is Liver microsomes. Kind of series: Intrinsic clearance in rat liver microsome. It is filed as ADME.
A short description of series [6]: Ratio of drug uptake from blood to brain in rat. Particulars: brain and blood. Format: ADME, tissue-based.
Series [7] is described as follows: Oral bioavailability in rat at 1 mg/kg. Format: ADME, organism-based. Particulars: in vivo.

Sequence of Cytochrome P450 2C19 (P33261 whole entry): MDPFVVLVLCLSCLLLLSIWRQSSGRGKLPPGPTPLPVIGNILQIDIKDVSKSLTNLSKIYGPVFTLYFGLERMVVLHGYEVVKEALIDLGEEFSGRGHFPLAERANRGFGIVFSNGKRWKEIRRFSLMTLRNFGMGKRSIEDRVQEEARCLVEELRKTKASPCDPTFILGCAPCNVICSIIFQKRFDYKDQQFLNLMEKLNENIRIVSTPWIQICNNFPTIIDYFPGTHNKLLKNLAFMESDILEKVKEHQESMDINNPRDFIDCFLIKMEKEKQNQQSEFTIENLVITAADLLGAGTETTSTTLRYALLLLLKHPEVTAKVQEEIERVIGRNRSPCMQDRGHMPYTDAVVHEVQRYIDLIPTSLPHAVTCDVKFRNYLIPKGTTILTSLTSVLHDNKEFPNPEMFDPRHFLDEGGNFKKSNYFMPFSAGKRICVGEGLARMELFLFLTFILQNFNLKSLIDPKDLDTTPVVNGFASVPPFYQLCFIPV

On to `Cc1nnc(N2C[C@]3(CC[C@@H](CNc4cnn(-c5ccccc5F)c4)CC3)OC2=O)s1`, for which the fraction unbound in series [1] amounted to 0.026. For the same compound, the INH on Cytochrome P450 3A4 is 6 µM; at Cytochrome P450 2D6, > 10 µM; on Cytochrome P450 2C9 it was > 10 µM; at Cytochrome P450 1A2, > 10 µM; on Cytochrome P450 2C19, > 10 µM. This compound also had a Ki in series [2] of 200 pM.
`FC(F)(F)c1ccc(Nc2nc(-c3ccccn3)cs2)cc1`: the INH at Cytochrome P450 3A4, at Cytochrome P450 2D6, on Cytochrome P450 2C9, on Cytochrome P450 1A2 and at Cytochrome P450 2C19 was < 0.1 µM in each case. Moreover, the clearance in series [3] was found to be 27 mL/min/kg.
`O=C1O[C@]2(CC[C@H](CNc3ccc(OC4CCC4)cn3)CC2)CN1c1ccccn1`: the INH at Cytochrome P450 3A4 was 3 µM; on Cytochrome P450 2D6, 2 µM; on Cytochrome P450 2C9, 2 µM; at Cytochrome P450 1A2, > 10 µM; at Cytochrome P450 2C19 it was 7 µM. In series [2], this compound gave a Ki of 158 pM.
As to `O=C1O[C@]2(CC[C@H](CNc3ccc(-c4nccs4)cn3)CC2)CN1c1ccccn1`, the INH at Cytochrome P450 3A4 is 7 µM; on Cytochrome P450 2D6, 1 µM; at Cytochrome P450 2C9, 0.3 µM; on Cytochrome P450 1A2, > 10 µM; on Cytochrome P450 2C19, 3 µM. Also, the affinity in [2] corresponds to a Ki of 126 pM.
With `O=C1O[C@]2(CC[C@H](CNc3cnn(-c4ccccc4F)c3)CC2)CN1c1cccnc1F`, the unbound share (fraction unbound) in series [1] amounted to 0.019. In addition, the INH was 5 µM at Cytochrome P450 3A4; > 10 µM on Cytochrome P450 2D6; 6 µM at Cytochrome P450 2C9; > 10 µM at Cytochrome P450 1A2; 8 µM at Cytochrome P450 2C19. In [2], this compound gave a Ki of 100 pM.
Turning to `O=C1O[C@]2(CC[C@H](CNc3cnn(-c4ccccc4F)c3)CC2)CN1c1ccnnc1`, the unbound share (fraction unbound) in series [1] came out at 0.044. Moreover, the INH was 6 µM on Cytochrome P450 3A4; > 10 µM at Cytochrome P450 2D6; > 10 µM at Cytochrome P450 2C9; > 10 µM on Cytochrome P450 1A2; > 10 µM at Cytochrome P450 2C19. Besides, affinity in series [2] was put at a Ki of 200 pM.
Turning to `Cc1cccc(-c2ccc(NC[C@H]3CC[C@]4(CC3)CN(c3cccnn3)C(=O)O4)nc2)n1`, the fraction unbound in series [1] was 0.056. Further, the INH on Cytochrome P450 3A4, at Cytochrome P450 2D6, at Cytochrome P450 2C9, at Cytochrome P450 1A2 and at Cytochrome P450 2C19 was > 10 µM in each case. The same compound had an inhibitory constant (Ki) in [2] of 251 pM.
Consider `O=C1O[C@]2(CC[C@H](CNc3ccc(-c4ccccc4F)nn3)CC2)CN1c1ccccn1`, for which the fraction unbound in [1] turned out to be 0.016. The INH on Cytochrome P450 3A4 was > 10 µM; at Cytochrome P450 2D6 it was 2 µM; on Cytochrome P450 2C9 it was 1 µM; at Cytochrome P450 1A2, 5 µM; on Cytochrome P450 2C19 it was 2 µM. The same compound had a Ki in series [2] of 63.1 pM.
As for `O=C1O[C@]2(CC[C@H](CNc3cnn(-c4ccccc4F)c3)CC2)CN1c1cncnc1`, in series [1], the fraction unbound worked out at 0.044. Moreover, the INH is 2 µM at Cytochrome P450 3A4; > 10 µM at Cytochrome P450 2D6; > 10 µM at Cytochrome P450 2C9; > 10 µM at Cytochrome P450 1A2; 6 µM at Cytochrome P450 2C19. In series [2], this compound showed a Ki of 39.8 pM.
Take `O=C(Nc1nc(-c2ccccn2)cs1)N1CCC2(CC1)CN(c1ccccc1)C(=O)O2`: the INH at Cytochrome P450 3A4, on Cytochrome P450 2D6, at Cytochrome P450 2C9, on Cytochrome P450 1A2 and on Cytochrome P450 2C19 was > 10 µM in each case. For the same compound, the clearance with Liver microsomes [4] was determined as 0.6 mL/min/g; in the series with Liver microsomes [5], 0.5 mL/min/g.
On to `O=C1O[C@]2(CC[C@H](CNc3ccc(C(F)(F)F)cn3)CC2)CN1c1ccccn1`, for which, in series [1], the unbound share (fraction unbound) stood at 0.005. The INH is > 10 µM on Cytochrome P450 3A4; > 10 µM on Cytochrome P450 2D6; 2 µM at Cytochrome P450 2C9; > 10 µM on Cytochrome P450 1A2; 5 µM at Cytochrome P450 2C19. For the same compound, affinity in [2] was put at a Ki of 1000 pM.
Take `O=C1O[C@]2(CC[C@H](CNc3ccc(-c4ncccn4)cn3)CC2)CN1c1cccnn1`: the INH at Cytochrome P450 2D6, on Cytochrome P450 2C9, on Cytochrome P450 1A2 and at Cytochrome P450 2C19 was > 10 µM in each case. Moreover, the affinity in series [2] corresponds to a Ki of 1580 pM.
Turning to `O=C1O[C@]2(CC[C@H](CNc3ccc(-c4ccccc4F)nc3)CC2)CN1c1ccccn1`, the INH on Cytochrome P450 3A4 came to 9 µM; at Cytochrome P450 2D6 it was 2 µM; on Cytochrome P450 2C9, 1 µM; at Cytochrome P450 2C19 it was 9 µM. The Ki in [2] was 5010 pM.
In the case of `O=C1O[C@]2(CC[C@H](CNc3cnn(-c4ccccc4F)c3)CC2)CN1c1cccnc1`, the fraction unbound in [1] was found to be 0.025. For the same compound, the INH was 1 µM on Cytochrome P450 3A4; > 10 µM on Cytochrome P450 2D6; 7 µM on Cytochrome P450 2C9; > 10 µM at Cytochrome P450 1A2; 8 µM on Cytochrome P450 2C19. Moreover, the affinity in [2] corresponds to a Ki of 100 pM.
Regarding `Cc1ncccc1N1C[C@]2(CC[C@@H](CNc3cnn(-c4ccccc4F)c3)CC2)OC1=O`, the INH on Cytochrome P450 3A4, on Cytochrome P450 2D6, on Cytochrome P450 2C9 and at Cytochrome P450 1A2 was > 10 µM each time. Also, the Ki in series [2] was 631 pM.
Regarding `Cc1ccccc1-c1ccc(NC[C@H]2CC[C@]3(CC2)CN(c2cccnn2)C(=O)O3)nn1`, in series [1], the fraction unbound worked out at 0.051. The INH at Cytochrome P450 3A4, on Cytochrome P450 2D6, at Cytochrome P450 2C9, at Cytochrome P450 1A2 and on Cytochrome P450 2C19 was > 10 µM in each case. The compound also showed a Ki in [2] of 63.1 pM.
As to `O=C1O[C@]2(CC[C@H](CNc3cnc(-c4ccccc4F)cn3)CC2)CN1c1ccccn1`, the fraction unbound in [1] amounted to 0.002. The INH at Cytochrome P450 3A4 is > 10 µM; at Cytochrome P450 2D6, > 10 µM; on Cytochrome P450 2C9, 0.3 µM; on Cytochrome P450 1A2, > 10 µM; at Cytochrome P450 2C19, 2 µM. This compound also had an inhibitory constant (Ki) in [2] of 25.1 pM.
Consider `O=C1O[C@]2(CC[C@H](CNc3ccc(-c4ncccn4)cn3)CC2)CN1c1ccccn1`, for which the free fraction (fraction unbound) in series [1] stood at 0.035. The INH at Cytochrome P450 3A4 is > 10 µM; on Cytochrome P450 2D6, > 10 µM; on Cytochrome P450 2C9, 5 µM; on Cytochrome P450 1A2, > 10 µM; at Cytochrome P450 2C19, 10 µM. In addition, in [2], the inhibition constant Ki was 158 pM.
With `O=C1O[C@]2(CC[C@H](CNc3cnn(-c4ccccc4F)c3)CC2)CN1c1cnccn1`, in series [1], the fraction unbound turned out to be 0.017. Besides, the INH at Cytochrome P450 3A4 was 0.6 µM; at Cytochrome P450 2D6 it was 2 µM; on Cytochrome P450 2C9, 3 µM; on Cytochrome P450 1A2 it was > 10 µM; at Cytochrome P450 2C19, 2 µM. In series [2], this compound gave an inhibition constant (Ki) of 63.1 pM.
With `O=C1O[C@]2(CC[C@H](CNc3ccc(-c4ncccc4F)cn3)CC2)CN1c1cccnn1`, the unbound share (fraction unbound) in [1] turned out to be 0.052. The INH on Cytochrome P450 3A4, on Cytochrome P450 2D6, at Cytochrome P450 2C9, on Cytochrome P450 1A2 and at Cytochrome P450 2C19 was > 10 µM each time. Also, the clearance in series [3] is 70 mL/min/kg. This compound also gave a Ki in series [2] of 316 pM. Further, the Kp in [6] was 0.4. In series [7], the bioavailability was 50%.
Regarding `O=C1O[C@]2(CC[C@H](CNc3ccn(-c4ccccc4F)n3)CC2)CN1c1ccccn1`, the INH is > 10 µM on Cytochrome P450 3A4; > 10 µM on Cytochrome P450 2D6; 2 µM at Cytochrome P450 2C9; > 10 µM at Cytochrome P450 1A2; 4 µM on Cytochrome P450 2C19. Moreover, in series [2], the Ki was 31.6 pM.
In the case of `O=C1O[C@]2(CC[C@H](CNc3ncc(-c4ccccc4F)cn3)CC2)CN1c1ccccn1`, in [1], the fraction unbound is < 0.01. The INH was 5 µM on Cytochrome P450 3A4; > 10 µM on Cytochrome P450 2D6; 1 µM at Cytochrome P450 2C9; 6 µM on Cytochrome P450 1A2; 4 µM on Cytochrome P450 2C19. The Ki in series [2] was 316 pM.
